In US9464048B2, “5-oxo-ETE receptor antagonist compounds” (THE ROYAL INSTITUTION FOR THE ADVANCEMENT OF …, priority 2009, dated 2016):
pIC50: −log10 of the molar value. Read-outs that look alike come from different tables or passages of the source.

Molecular target: OXE receptor (Homo sapiens, UniProt Q8TDS5)
Assay: 5-oxo-ETE-induced calcium mobilization in human granulocytes
Format: cell-based
Design: Human granulocytes 95% neutrophils) are prepared from whole blood; endogenous in cells; host or cells: human blood granulocytes (>=95% neutrophils)
Conditions: for IC50: 5-oxo-ETE 10 nM, human granulocytes, Table 2, read-out: IC50 (μM) Ca^++
Protocol: Primary Screening for Antagonist Activity: Calcium Mobilization in Human Granulocytes
Human granulocytes 95% neutrophils) are prepared from whole blood using Dextran 500 to remove red blood cells, followed by centrifugation over Ficoll-Paque to remove mononuclear cells and hypotonic lysis of any remaining red blood cells. After centrifugation the granulocytes are suspended in Ca^++/Mg^++-free phosphate-buffered saline (PBS). Granulocytes (10^7 cells/nil) are incubated with the acetoxymethyl ester of indo-1 ([…]) for 30 min, followed by washing twice with PBS^− and resuspension in the same medium to obtain a final cell concentration of 3.22×10^6 cells/ml. Five minutes prior to commencing data acquisition, Ca^++ and Mg^++ are added to give final concentrations of 1.8 and 1 mM, respectively. Calcium measurements are performed at 37° C. using a spectrofluorometer equipped with a temperature-controlled cuvette holder and a magnetic stirrer. The excitation and emission wavelengths are 331 nm and 410 nm, respectively. Following stabilization of the baseline, fluorescence is measured for 1 min, prior to the addition of either vehicle or various concentrations of a potential 5-oxo-ETE antagonist. Two min later, 5-oxo-ETE (10 nM) is added, followed 1 min later by digitonin (final concentration 0.1%). Data acquisition is terminated after a further 0.5 min. In some cases LTB4 (10 nM) is added 2 min after 5-oxo-ETE, followed 0.5 min later by addition of digitonin. Fmax is determined from fluorescence measurements after the addition of digitonin, whereas Fmin is determined after determination of autofluorescence as described in the literature (Gelfand et al, J. Biol. Chem. 261:11520 (1986)). A dissociation constant of 250 nM for the indo-1/Ca^++ complex is used to calculate [Ca^++]i. […] Measurement of Actin Polymerization in Eosinophils

[1] = Table 3, position of hexyl/hexenyl on the scaffold, readout not given, values match Ca^++, read-out: IC50
[2] = Table 4, R1/R2/R3 variation, readout not given, read-out: IC50
[3] = Table 5, alkyl chain variation, readout not given, values match Ca^++, read-out: IC50
[4] = Table 6, carboxyl side chain variation, readout not given, values match Ca^++, read-out: IC50
[5] = Table 7, alkyl variation, readout not given, values match Ca^++, read-out: IC50

Chain of OXE receptor (Q8TDS5 whole entry): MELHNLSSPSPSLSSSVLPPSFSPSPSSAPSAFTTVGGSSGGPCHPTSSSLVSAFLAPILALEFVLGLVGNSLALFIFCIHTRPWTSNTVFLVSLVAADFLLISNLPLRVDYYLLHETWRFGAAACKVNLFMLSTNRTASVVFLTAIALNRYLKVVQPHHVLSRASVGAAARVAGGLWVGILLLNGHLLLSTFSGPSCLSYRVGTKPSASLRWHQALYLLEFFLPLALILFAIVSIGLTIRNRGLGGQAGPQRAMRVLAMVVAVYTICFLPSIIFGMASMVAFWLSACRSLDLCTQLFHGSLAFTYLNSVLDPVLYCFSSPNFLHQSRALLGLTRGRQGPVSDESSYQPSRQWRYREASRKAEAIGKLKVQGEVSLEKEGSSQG

With `CCCC/C=C/c1cccc2ccn(C(=O)CCCC(=O)O)c12` [Compound 32, 5-(7-Hex-1-enyl-indol-1-yl)-5-oxo-pentanoic acid] as the compound, how does the pIC50 [1] read?
The pIC50 was under 5.00.

How did the pIC50 [2] turn out when `CCCCCCc1c(C(=O)CCCC(=O)O)n(C)c2ccccc12` [Compound 11, 5-(3-Hexyl-1-methyl-1H-indol-2-yl)-5-oxo-pentanoic acid] was run?
The pIC50 was under 4.52.

With `CCCCCCCCC/C=C\c1cc2ccccc2n1C(=O)CCCC(=O)O` [Compound 20, 5-Oxo-5-(2-undec-1-enyl-indol-1-yl)-pentanoic acid] as the compound, how does the pIC50 [3] read?
Its pIC50 is 4.70.

Which IC50 does the source give for `CCCCCCc1c(C(=O)CC(C)CC(=O)O)c2ccccc2n1C` (centres unmarked) [Compound 6, 5-(2-Hexyl-1-methyl-1H-indol-3-yl)-3-methyl-5-oxo-pentanoic acid] here?
Its IC50 is 0.34 µM.

`CCCCCCc1cc2ccc(Cl)cc2n1C(=O)CCC(C)(C)C(=O)O` [Compound 116, 5-(6-Chloro-2-hexyl-indol-1-yl)-2,2-dimethyl-5-oxo-pentanoic acid] was tested. Which IC50 did it give?
Its IC50 is over 10 µM.

`CCCCCCc1cc2ccccc2n1C(=O)CC(C)(C)CC(=O)O` [Compound 21, 5-(2-Hexyl-indol-1-yl)-3,3-dimethyl-5-oxo-pentanoic acid] was tested. Which pIC50 [4] did it give?
Its pIC50 is 4.89.

For `CC(C)CCCCc1cc2ccc(Cl)cc2n1C(=O)CC(C)CC(=O)O` (centres unmarked) [Compound 110, 5-[6-Chloro-2-(5-methyl-hexyl)-indol-1-yl]-3-methyl-5-oxo-pentanoic acid], which IC50 is on record?
Its IC50 is 1.03 µM.

`CCCCCCc1cc2cc(Cl)ccc2n1C(=O)CCCC(=O)O` [Compound 29, 5-(5-Chloro-2-hexyl-indol-1-yl)-5-oxo-pentanoic acid] was tested. Which pIC50 [3] did it give?
Its pIC50 is 5.85.

With `CCCCCCc1cc2ccccc2n1C(=O)CCCC(=O)O` [Compound 1, 5-(2-Hexyl-indol-1-yl)-5-oxo-pentanoic acid] as the compound, how does the IC50 read?
The IC50 was 1 µM.

And the pIC50 [1]?
Its pIC50 is 6.00.

And the pIC50 [3]?
Its pIC50 is 6.00.

What about the pIC50 [4] of the same compound?
The pIC50 was 6.00.

With `CCCCCCCc1cc2ccccc2n1C(=O)CC(C)CC(=O)O` (centres unmarked) [Compound 34, 5-(2-Heptyl-indol-1-yl)-3-methyl-5-oxo-pentanoic acid] as the compound, how does the pIC50 [5] read?
The pIC50 was 6.92.

Which IC50 does the source give for `CCCCCCc1c(C(=O)C[C@@H](C)CC(=O)NC(C)c2ccccc2)c2cc(Cl)ccc2n1C` (stereo partly drawn) [Compound 106, 5-(5-Chloro-2-hexyl-1-methyl-1H-indol-3-yl)-3-(R)-methyl-5-oxo-pentanoic acid (1-phenyl-ethyl)-amide] here?
Its IC50 is over 10 µM.

How did the pIC50 turn out when `CCCCCCc1c(C(=O)c2cccc(C(=O)O)c2)c2cc(Cl)ccc2n1C` [Compound 108, 3-(5-Chloro-2-hexyl-1-methyl-1H-indole-3-carbonyl)benzoic acid] was run?
Its pIC50 is 7.19.

`CCCC/C=C/c1ccc2c(ccn2C(=O)CC(C)CC(=O)O)c1` (centres unmarked) [Compound 17, 5-(5-Hex-1-enyl-indol-1-yl)-3-methyl-5-oxo-pentanoic acid] was tested. Which pIC50 [5] did it give?
Its pIC50 is 5.00.

`CCCCCCc1cc2ccccc2n1C(=O)C[C@@H](C)CC(=O)O` [Compound 3, 5-(2-Hexyl-indol-1-yl)-3(R)-methyl-5-oxo-pentanoic acid] was tested. Which pIC50 [4] did it give?
Its pIC50 is 6.10.

`CCCCCCc1c(C(=O)CC(C)CC(=O)O)c2ccccc2n1CC` (centres unmarked) [Compound 102, 5-(1-Ethyl-2-hexyl-1H-indol-3-yl)-3-methyl-5-oxo-pentanoic acid] was tested. Which IC50 did it give?
Its IC50 is 1.6 µM.

With `CCCCCCc1ccc2c(ccn2C(=O)CCCC(=O)O)c1` [Compound 30, 5-(5-Hexyl-indol-1-yl)-5-oxo-pentanoic acid] as the compound, how does the pIC50 [1] read?
The pIC50 was under 4.52.

Which IC50 does the source give for `CC(C)CCCCc1c(C(=O)CC(C)CC(=O)O)c2cc(Cl)ccc2n1C` (centres unmarked) [Compound 114, 5-[5-Chloro-1-methyl-2-(5-methyl-hexyl)-1H-indol-3-yl]-3-methyl-5-oxo-pentanoic acid] here?
The IC50 was 0.011 µM.

For `CC(C)CCCCc1c(C(=O)CC(C)CC(=O)O)c2ccc(Cl)cc2n1C` (racemic) [Compound 109, 5-[6-Chloro-1-methyl-2-(5-methyl-hexyl)-1H-indol-3-yl]-3-methyl-5-oxo-pentanoic acid], which IC50 is on record?
Its IC50 is 0.175 µM.

Which results are given for `CCCCCCc1c(C(=O)CCCC(=O)O)c2ccccc2n1C` [Compound 5, 5-(2-Hexyl-1-methyl-1H-indol-3-yl)-5-oxo-pentanoic acid]?
IC50: 2.5 µM; pIC50 [2]: 5.43

`CCCCCCc1c(C(=O)CC(C)CC(=O)NC(C)c2ccccc2)c2cc(Cl)ccc2n1C` (centres unmarked) [Compound 105, 5-(5-chloro-2-hexyl-1-methyl-1H-indol-3-yl)-3-methyl-5-oxo-N-(1-phenylethyl)pentanamide] was tested. Which IC50 did it give?
The IC50 was over 10 µM.

With `CCCCc1cc2ccccc2n1C(=O)CCCC(=O)O` [Compound 26, 5-(2-Butyl-indol-1-yl)-5-oxo-pentanoic acid] as the compound, how does the pIC50 [3] read?
The pIC50 was under 4.52.

With `CCCCCCc1cn(C(=O)CCCC(=O)O)c2ccccc12` [Compound 7, 5-(3-Hexyl-indol-1-yl)-5-oxo-pentanoic acid] as the compound, how does the pIC50 [1] read?
Its pIC50 is under 4.52.

Which IC50 does the source give for `CC(C)CCCCc1cc2cc(Cl)ccc2n1C(=O)CC(C)CC(=O)O` (racemic) [Compound 115, 5-[5-Chloro-2-(5-methyl-hexyl)-indol-1-yl]-3-methyl-5-oxo-pentanoic acid] here?
Its IC50 is 2 µM.

How did the pIC50 [2] turn out when `CCCCCCn1cc(C(=O)CCCC(=O)O)c2ccccc21` [Compound 8, 5-(1-Hexyl-1H-indol-3-yl)-5-oxo-pentanoic acid] was run?
The pIC50 was under 4.52.

How did the pIC50 [5] turn out when `CCCCCc1cc2ccccc2n1C(=O)CC(C)CC(=O)O` (centres unmarked) [Compound 19, 3-Methyl-5-oxo-5-(2-pentyl-indol-1-yl)-pentanoic acid] was run?
Its pIC50 is 7.00.

How did the IC50 turn out when `CCCCCCc1c(C(=O)CC(C)CC(=O)O)c2cc(Cl)ccc2n1CC` (centres unmarked) [Compound 101, 5-(5-Chloro-1-ethyl-2-hexyl-1H-indol-3-yl)-3-methyl-5-oxo-pentanoic acid] was run?
The IC50 was 0.35 µM.

With `CCCC/C=C/c1ccc2c(ccn2C(=O)CCCC(=O)O)c1` [Compound 28, 5-(5-hex-1-enyl-indol-1-yl)-5-oxo-pentanoic acid] as the compound, how does the pIC50 [1] read?
Its pIC50 is 5.19.

With `CCCCCCc1cc2ccccc2n1CCCC(=O)O` [Compound 16, 4-(2-Hexyl-indol-1-yl)-butyric acid] as the compound, how does the pIC50 [4] read?
The pIC50 was 5.35.

With `CCCCCCCCCCCc1cc2ccccc2n1C(=O)CCCC(=O)O` [Compound 23, 5-Oxo-5-(2-undecyl-indol-1-yl)-pentanoic acid] as the compound, how does the pIC50 [3] read?
Its pIC50 is 4.60.

With `CCCCCCCc1c(C(=O)CC(C)CC(=O)O)c2cc(Cl)ccc2n1C` (racemic) [Compound 113, 5-(5-Chloro-2-heptyl-1-methyl-1H-indol-3-yl)-3-methyl-5-oxo-pentanoic acid] as the compound, how does the IC50 read?
Its IC50 is 0.035 µM.

With `CCCCCCc1[nH]c2ccccc2c1C(=O)CCCC(=O)O` [Compound 10, 5-(2-Hexyl-1H-indol-3-yl)-5-oxo-pentanoic acid] as the compound, how does the pIC50 [2] read?
The pIC50 was 4.96.

`CCCCCCc1cccc2ccn(C(=O)CCCC(=O)O)c12` [Compound 27, 5-(7-Hexyl-indol-1-yl)-5-oxo-pentanoic acid] was tested. Which pIC50 [1] did it give?
Its pIC50 is under 4.52.

`CCCCCCc1c(C(=O)C[C@@H](C)CC(=O)O)c2cc(Cl)ccc2n1C` [Compound 100, 5-(5-chloro-2-hexyl-1-methyl-1H-indol-3-yl)-3-(R)-methyl-5-oxopentanoic acid] was tested. Which IC50 did it give?
The IC50 was 0.125 µM.

`CCCCCCCc1cc2ccccc2n1C(=O)CCCC(=O)O` [Compound 33, 5-(2-Heptyl-indol-1-yl)-5-oxo-pentanoic acid] was tested. Which pIC50 [3] did it give?
Its pIC50 is 5.82.

`CCCC/C=C/c1cc2ccccc2n1C(=O)CCCC(=O)O` [Compound 12, 5-(2-Hex-1-enyl-indol-1-yl)-5-oxo-pentanoic acid] was tested. Which pIC50 [3] did it give?
Its pIC50 is 5.48.

How did the pIC50 [3] turn out when `CCCCCc1cc2ccccc2n1C(=O)CCCC(=O)O` [Compound 18, 5-Oxo-5-(2-pentyl-indol-1-yl)-pentanoic acid] was run?
The pIC50 was 5.96.

With `CCCCCCCCc1cc2ccccc2n1C(=O)CCCC(=O)O` [Compound 25, 5-(2-Octyl-indol-1-yl)-5-oxo-pentanoic acid] as the compound, how does the pIC50 [3] read?
The pIC50 was 5.57.
